ChEMBL document CHEMBL1137339, “Improved therapeutic efficacy of doxorubicin through conjugation with a novel peptide drug delivery technology (Vectocell)” (J Med Chem, 2006)
pIC50: −log10 of the molar value. Starred links: 1 amine or outer side, 2 acyl side, 3 side chain; linkers in the order of their positions; H or OH if unused. Non-standard residues stand in square brackets, D forms with d. Residues, ends and D or L forms follow the SMILES beside them. ξ: configuration not given here. *: point of attachment. X1 = COc1cccc2c1C(=O)c1c(O)c3c(c(O)c1C2=O)C[C@@](O)(C(=O)COC(=O)CCCN1C(=O)CC(*)C1=O)C[C@@H]3O[C@H]1C[C@H](N)[C@H](O)[C@H](C)O1; X4 = COc1cccc2c1C(=O)c1c(O)c3c(c(O)c1C2=O)C[C@@](O)(C(=O)CO)C[C@@H]3O[C@H]1C[C@H](NC(=O)CCCN2C(=O)CC(*)C2=O)[C@H](O)[C@H](C)O1; X2 = COc1cccc2c1C(=O)c1c(O)c3c(c(O)c1C2=O)C[C@@](O)(C(=O)C*)CC3O[C@H]1C[C@H](N)[C@H](O)[C@H](C)O1; X3 = COc1cccc2c1Cc1cc3c(cc1C2)C[C@@](O)(C(=O)CSCN*)C[C@@H]3O[C@H]1C[C@H](N)[C@H](O)[C@H](C)O1; CO = O=C([*:1])[*:2]; ξC = NC(CS)C(=O)O

Assays:
HCT-116 [1] = assay: Cytotoxicity against HCT116 cell line xenografted in NMRI nu/nu mouse at 15 umol/kg relative to control; type: functional, Homo sapiens
NCI/ADR-RES [2] = assay: Cytotoxicity against doxorubicin-resistant MCF7/Adr cell line by WST1 assay; type: functional, cell-based; conditions: Homo sapiens
MCF7 = assay: Cytotoxicity against doxorubicin-sensitive MCF7/6 cell line by WST1 assay; type: functional, cell-based; conditions: Homo sapiens
HCT-116 [3] = assay: Cytotoxicity against doxorubicin-sensitive HCT116 cell line by WST1 assay; type: functional, cell-based; conditions: Homo sapiens
HCT-116 [4] = assay: Cytotoxicity against HCT116 cell line xenografted in NMRI nu/nu mouse at 10 umol/kg relative to control; type: functional, Homo sapiens
MES-SA/Dx5 [5] = assay: Cytotoxicity against MES-SA/dx5 cell line by WST1 assay; type: functional, cell-based; conditions: Homo sapiens
HCT-15 [6] = assay: Cytotoxicity against HCT15 cell line by WST1 assay; type: functional, cell-based; conditions: Homo sapiens
HCT-15 [7] = assay: Cytotoxicity against doxorubicin-resistant HCT15 cell line in presence of verapamil by WST1 assay; type: functional, cell-based; conditions: Homo sapiens
MES-SA/Dx5 [8] = assay: Cytotoxicity against doxorubicin-resistant MES-SA/dx5 cell line in presence of verapamil by WST1 assay; type: functional, cell-based; conditions: Homo sapiens
HCT-116 [9] = assay: Cytotoxicity against doxorubicin-sensitive HCT116 cell line in presence of verapamil by WST1 assay; type: functional, cell-based; conditions: Homo sapiens
NCI/ADR-RES [10] = assay: Cytotoxicity against doxorubicin-resistant MCF7/Adr cell line in presence of verapamil by WST1 assay; type: functional, cell-based; conditions: Homo sapiens
HCT-116 [11] = assay: Cytotoxicity against HCT116 cell line xenografted in NMRI nu/nu mouse at 6.5 umol/kg relative to control; type: functional, Homo sapiens

| Molecule | Activity (HCT-116 [1]) [%] | pIC50 (NCI/ADR-RES [2]) | pIC50 (MCF7) | pIC50 (HCT-116 [3]) | Activity (HCT-116 [4]) [%] | pIC50 (MES-SA/Dx5 [5]) | pIC50 (HCT-15 [6]) | pIC50 (HCT-15 [7]) | pIC50 (MES-SA/Dx5 [8]) | pIC50 (HCT-116 [9]) | pIC50 (NCI/ADR-RES [10]) | Activity (HCT-116 [11]) [%] |
| --- | --- | --- | --- | --- | --- | --- | --- | --- | --- | --- | --- | --- |
| COc1cccc2c1C(=O)c1c(O)c3c(c(O)c1C2=O)C[C@@](O)(C(=O)COC(=O)CCCN1C(=O)CC(SCC(N)C(=O)N[C@@H](CO)C(=O)N[C@@H](CCCN=C(N)N)C(=O)N[C@@H](CCCN=C(N)N)C(=O)N[C@@H](C)C(=O)N[C@@H](CCCN=C(N)N)C(=O)N[C@@H](CCCN=C(N)N)C(=O)N[C@@H](CO)C(=O)N2CCC[C@H]2C(=O)N[C@@H](CCCN=C(N)N)C(=O)N[C@@H](Cc2c[nH]cn2)C(=O)N[C@@H](CC(C)C)C(=O)NCC(=O)N[C@@H](CO)C(=O)NCC(=O)N[C@@H](CS)C(=O)O)C1=O)C[C@@H]3O[C@H]1C[C@H](N)[C@H](O)[C@H](C)O1.O=C(O)C(F)(F)F (stereo partly specified) (H-[ξC](X1)SRRARRSPRHLGSGC-OH) | 39 | 3.27 | 5.05 | 5.70 |  |  |  |  |  |  |  |  |
| COc1cccc2c1C(=O)c1c(O)c3c(c(O)c1C2=O)C[C@@](O)(C(=O)CSCC(N)C(=O)N[C@@H](CO)C(=O)N[C@@H](CCCN=C(N)N)C(=O)N[C@@H](CCCN=C(N)N)C(=O)N[C@@H](C)C(=O)N[C@@H](CCCN=C(N)N)C(=O)N[C@@H](CCCN=C(N)N)C(=O)N[C@@H](CO)C(=O)N1CCC[C@H]1C(=O)N[C@@H](CCCN=C(N)N)C(=O)N[C@@H](Cc1c[nH]cn1)C(=O)N[C@@H](CC(C)C)C(=O)NCC(=O)N[C@@H](CO)C(=O)NCC(=O)N[C@@H](CS)C(=O)O)CC3O[C@H]1C[C@H](N)[C@H](O)[C@H](C)O1.O=C(O)C(F)(F)F (stereo partly specified) (H-[ξC](X2)SRRARRSPRHLGSGC-OH) |  | 3.92 | 4.43 | 3.82 | 55.8 |  |  |  |  |  |  |  |
| COc1cccc2c1C(=O)c1c(O)c3c(c(O)c1C2=O)C[C@@](O)(C(=O)CO)C[C@@H]3O[C@H]1C[C@H](NC(=O)CCCN2C(=O)CC(SCC(N)C(=O)N[C@@H](CO)C(=O)N[C@@H](CCCN=C(N)N)C(=O)N[C@@H](CCCN=C(N)N)C(=O)N[C@@H](C)C(=O)N[C@@H](CCCN=C(N)N)C(=O)N[C@@H](CCCN=C(N)N)C(=O)N[C@@H](CO)C(=O)N3CCC[C@H]3C(=O)N[C@@H](CCCN=C(N)N)C(=O)N[C@@H](Cc3c[nH]cn3)C(=O)N[C@@H](CC(C)C)C(=O)NCC(=O)N[C@@H](CO)C(=O)NCC(=O)N[C@@H](CS)C(=O)O)C2=O)[C@H](O)[C@H](C)O1 (stereo partly specified) (H-[ξC](X4)SRRARRSPRHLGSGC-OH) |  | 3.20 | 3.94 | 3.70 |  |  |  |  |  |  |  |  |
| COc1cccc2c1Cc1cc3c(cc1C2)C[C@@](O)(C(=O)CSCNC(=O)NCC(=O)N[C@@H](CCCCN)C(=O)N[C@@H](CCCN=C(N)N)C(=O)N[C@@H](CCCCN)C(=O)N[C@@H](CCCCN)C(=O)N[C@@H](CCCCN)C(=O)NCC(=O)N[C@@H](CCCCN)C(=O)N[C@@H](CC(C)C)C(=O)NCC(=O)N[C@@H](CCCCN)C(=O)N[C@@H](CCCCN)C(=O)N[C@@H](CCCN=C(N)N)C(=O)N1CCC[C@H]1C(=O)N[C@@H](CCCN=C(N)N)C(=O)N[C@@H](CO)C(=O)N[C@@H](CCCN=C(N)N)C(=O)N[C@@H](CS)C(=O)O)C[C@@H]3O[C@H]1C[C@H](N)[C@H](O)[C@H](C)O1.O=C(O)C(F)(F)F ({X3-CO}-GKRKKKGKLGKKRPRSRC-OH) |  | 3.06 | 4.77 | 4.52 | 86.2 |  |  |  |  |  |  |  |
| COc1cccc2c1C(=O)c1c(O)c3c(c(O)c1C2=O)C[C@@](O)(C(=O)CO)C[C@@H]3O[C@H]1C[C@H](N)[C@H](O)[C@H](C)O1.O=C(O)C(F)(F)F [DOXORUBICIN TRIFLUOROACETATE] |  | < 3.00 |  | 5.52 |  | 3.22 | 3.55 | 4.70 | 4.68 | 5.70 | 4.52 | 49.6 |
| H-CVKRGLKLRHVRPRVTRMDV-OH |  | < 3.00 |  | < 3.00 |  |  |  |  |  |  |  |  |
